From patent US10479784B2, “Substituted pyrazin-2-amines as inhibitors of ATR kinase” (Vertex Pharmaceuticals Incorporated, priority 2008, dated 2019)

Biological target: full-length ATR (Homo sapiens (Human), UniProt Q13535)
Assay: ATR Inhibition Assay (radioactive-phosphate incorporation)
Type: biochemical
Details: read-out: ATR Ki
Method in brief: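 Full-length human ATR (5 nM) was assayed at 25 °C in 50 mM Tris/HCl pH 7.5, 10 mM MgCl2, 1 mM DTT, with 10 μM [γ-33P]ATP and 800 μM peptide, after 10-min compound preincubation. Reactions were stopped after 24 h, captured on phosphocellulose and counted; Ki(app) came from non-linear regression of initial rates.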

full-length ATR, sequence (Q13535 whole entry): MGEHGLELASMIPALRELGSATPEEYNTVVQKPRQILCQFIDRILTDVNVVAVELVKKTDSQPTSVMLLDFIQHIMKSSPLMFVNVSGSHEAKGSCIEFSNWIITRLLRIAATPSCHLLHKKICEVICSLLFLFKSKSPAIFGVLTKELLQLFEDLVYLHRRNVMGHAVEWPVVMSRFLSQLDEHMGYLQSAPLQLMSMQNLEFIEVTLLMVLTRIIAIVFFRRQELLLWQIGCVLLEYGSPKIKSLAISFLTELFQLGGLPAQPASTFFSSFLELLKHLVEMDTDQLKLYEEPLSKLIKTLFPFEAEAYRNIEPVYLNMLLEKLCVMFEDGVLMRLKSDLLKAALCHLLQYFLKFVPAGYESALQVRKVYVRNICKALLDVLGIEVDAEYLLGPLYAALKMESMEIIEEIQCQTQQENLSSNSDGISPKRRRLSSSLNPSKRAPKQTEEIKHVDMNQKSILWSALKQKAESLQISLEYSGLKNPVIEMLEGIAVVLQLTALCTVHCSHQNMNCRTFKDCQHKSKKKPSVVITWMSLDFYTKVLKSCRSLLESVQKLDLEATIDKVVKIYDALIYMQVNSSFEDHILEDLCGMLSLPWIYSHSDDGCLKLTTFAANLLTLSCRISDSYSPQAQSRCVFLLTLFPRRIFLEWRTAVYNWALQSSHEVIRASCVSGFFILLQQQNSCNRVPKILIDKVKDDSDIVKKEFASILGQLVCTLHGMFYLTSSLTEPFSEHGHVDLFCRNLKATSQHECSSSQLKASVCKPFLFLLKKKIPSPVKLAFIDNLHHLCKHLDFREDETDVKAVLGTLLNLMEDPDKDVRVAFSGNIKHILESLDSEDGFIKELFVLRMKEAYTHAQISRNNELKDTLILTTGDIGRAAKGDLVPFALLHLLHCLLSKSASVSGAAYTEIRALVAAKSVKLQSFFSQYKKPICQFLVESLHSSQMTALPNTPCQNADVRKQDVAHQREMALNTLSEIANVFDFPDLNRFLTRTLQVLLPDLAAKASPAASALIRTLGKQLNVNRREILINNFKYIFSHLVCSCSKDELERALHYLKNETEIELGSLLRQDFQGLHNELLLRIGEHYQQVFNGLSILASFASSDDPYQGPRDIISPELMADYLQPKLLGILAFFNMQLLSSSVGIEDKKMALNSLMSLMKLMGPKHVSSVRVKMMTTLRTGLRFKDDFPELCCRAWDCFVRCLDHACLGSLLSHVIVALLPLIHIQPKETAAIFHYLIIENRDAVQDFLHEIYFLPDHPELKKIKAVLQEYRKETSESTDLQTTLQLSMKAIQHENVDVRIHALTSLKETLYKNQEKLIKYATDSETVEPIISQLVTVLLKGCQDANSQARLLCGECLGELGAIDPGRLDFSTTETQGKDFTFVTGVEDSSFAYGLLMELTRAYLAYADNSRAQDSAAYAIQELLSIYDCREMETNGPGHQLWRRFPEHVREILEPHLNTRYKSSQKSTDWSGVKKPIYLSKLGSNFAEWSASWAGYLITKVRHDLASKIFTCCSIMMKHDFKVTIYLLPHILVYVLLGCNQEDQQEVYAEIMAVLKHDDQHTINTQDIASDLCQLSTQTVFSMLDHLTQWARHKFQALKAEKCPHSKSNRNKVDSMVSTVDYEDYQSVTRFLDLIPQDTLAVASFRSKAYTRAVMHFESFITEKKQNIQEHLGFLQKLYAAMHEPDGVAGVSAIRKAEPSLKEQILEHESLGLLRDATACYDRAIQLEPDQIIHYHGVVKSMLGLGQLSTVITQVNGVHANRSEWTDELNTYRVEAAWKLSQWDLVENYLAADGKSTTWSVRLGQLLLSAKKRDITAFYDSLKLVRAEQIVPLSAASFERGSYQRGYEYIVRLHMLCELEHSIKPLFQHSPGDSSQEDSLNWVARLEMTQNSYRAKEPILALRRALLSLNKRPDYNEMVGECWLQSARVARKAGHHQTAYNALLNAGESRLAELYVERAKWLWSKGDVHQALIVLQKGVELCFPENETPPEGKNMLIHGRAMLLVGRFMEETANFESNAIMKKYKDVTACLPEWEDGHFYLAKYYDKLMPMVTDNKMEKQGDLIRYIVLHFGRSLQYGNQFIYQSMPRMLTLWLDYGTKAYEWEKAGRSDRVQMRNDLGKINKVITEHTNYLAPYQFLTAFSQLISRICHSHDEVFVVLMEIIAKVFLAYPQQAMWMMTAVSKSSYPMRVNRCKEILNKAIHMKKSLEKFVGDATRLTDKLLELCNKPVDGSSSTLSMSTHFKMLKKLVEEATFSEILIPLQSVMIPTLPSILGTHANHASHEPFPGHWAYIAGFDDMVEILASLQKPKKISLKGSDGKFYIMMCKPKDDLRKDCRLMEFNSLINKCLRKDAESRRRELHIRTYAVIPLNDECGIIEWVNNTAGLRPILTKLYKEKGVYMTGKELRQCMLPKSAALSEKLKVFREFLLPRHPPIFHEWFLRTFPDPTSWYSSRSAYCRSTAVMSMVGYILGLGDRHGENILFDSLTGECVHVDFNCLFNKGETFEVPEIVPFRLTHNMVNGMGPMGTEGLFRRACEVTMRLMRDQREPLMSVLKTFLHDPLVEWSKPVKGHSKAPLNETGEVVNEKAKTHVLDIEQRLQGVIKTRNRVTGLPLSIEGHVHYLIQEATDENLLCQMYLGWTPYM

SMILES	Ki [nM]
Nc1ncc(-c2ccc(O)nc2)nc1C(=O)Nc1ccccc1 [Compound I-32, 3-amino-6-(6-hydroxypyridin-3-yl)-N-phenylpyrazine-2-carboxamide]	10 to 100
Nc1ncc(-c2ccccc2CO)nc1-c1nc2ccccc2[nH]1 [Compound I-127, (2-(5-amino-6-(1H-benzo[d]imidazol-2-yl)pyrazin-2-yl)phenyl)methanol]	100 to 5000
Nc1ncc(-c2ccc(C(=O)N3CCCNCC3)cc2)nc1C(=O)Nc1ccc2c(c1)NNC2 [Compound V-28]	10 to 100
Nc1ncc(-c2cccnc2)nc1C(=O)Nc1ccc2[nH]ccc2c1 [Compound V-17]	10 to 100
CC(C)S(=O)(=O)c1ccc(-c2cnc(N)c(-c3nnc(C4=CCNCC4)o3)n2)cc1 [IA-232, 5-(4-isopropylsulfonylphenyl)-3-[5-(1,2,3,6-tetrahydropyridin-4-yl)-1,3,4-oxadiazol-2-yl]pyrazin-2-amine]	10 to 100
CN(C)C(=O)c1ccc(-c2cnc(N)c(-c3nnc(-c4cccc(CNC(=O)OC(C)(C)C)c4)o3)n2)cc1 [IA-73, tert-butyl N-[[3-[5-[3-amino-6-[4-(dimethylcarbamoyl)phenyl]pyrazin-2-yl]-1,3,4-oxadiazol-2-yl]phenyl]methyl]carbamate]	≤ 10
CN1CCC(NC(=O)c2cccc(-c3cnc(N)c(C(=O)Nc4ccccc4)n3)c2)CC1 [Compound I-48, 3-amino-6-(3-(1-methylpiperidin-4-ylcarbamoyl)phenyl)-N-phenylpyrazine-2-carboxamide]	100 to 5000
Nc1ncc(-c2ccncc2)nc1C(=O)Nc1ccccc1 [Compound I-33, 3-amino-N-phenyl-6-(pyridin-4-yl)pyrazine-2-carboxamide]	100 to 5000
Nc1ncc(-c2ccc(C(=O)NC3CC3)cc2)nc1C(=O)Nc1ccccc1 [Compound I-51, 3-amino-6-(4-(cyclopropylcarbamoyl)phenyl)-N-phenylpyrazine-2-carboxamide]	10 to 100
CC(=O)c1ccc(-c2cnc(N)c(C(=O)Nc3ccccc3)n2)cc1 [Compound I-17, 6-(4-acetylphenyl)-3-amino-N-phenylpyrazine-2-carboxamide]	100 to 5000
Nc1ncc(-c2cc(F)c(C(=O)N3CCCNCC3)c(F)c2)nc1-c1nnc(-c2ccccc2)o1 [IA-38]	10 to 100
CN(C)C1CCN(C(=O)c2ccc(-c3cnc(N)c(-c4nnc(-c5ccccc5)o4)n3)cc2F)CC1 [IA-4]	≤ 10
N#Cc1ccc(-c2cnc(N)c(-c3nc4ccccc4[nH]3)n2)cc1 [Compound I-129, 4-(5-amino-6-(1H-benzo[d]imidazol-2-yl)pyrazin-2-yl)benzonitrile]	10 to 100
CN(C)C(=O)c1ccc(-c2cnc(N)c(-c3nnc(-c4ccc(F)cc4)o3)n2)cc1 [IA-36]	10 to 100
CN(C)C(=O)c1ccc(-c2cnc(N)c(-c3nnc(Nc4cccnc4)o3)n2)cc1 [IA-44]	10 to 100
Nc1ncc(-c2ccc(C(=O)N3CCCNCC3)cc2)nc1C(=O)Nc1cc2ccccc2[nH]1 [Compound V-26]	100 to 5000
CCNCc1ccc(-c2nnc(-c3nc(-c4ccc(S(=O)(=O)C(C)C)cc4)cnc3N)o2)s1 [IA-83, 3-[5-[5-(ethylaminomethyl)-2-thienyl]-1,3,4-oxadiazol-2-yl]-5-(4-isopropylsulfonylphenyl)pyrazin-2-amine]	≤ 10
NC(=O)C1CCN(C(=O)c2ccc(-c3cnc(N)c(C(=O)Nc4ccccc4)n3)cc2)CC1 [Compound I-77, 3-amino-6-(4-(4-carbamoylpiperidine-1-carbonyl)phenyl)-N-phenylpyrazine-2-carboxamide]	10 to 100

The remaining lines, values ahead:

Ki [nM]	SMILES
100 to 5000	CC(C)S(=O)(=O)c1ccc(-c2cnc(N)c(-c3nnc(NC(=O)[C@@H]4CCCN4)o3)n2)cc1 [IA-217, (2S)—N-[5-[3-amino-6-(4-isopropylsulfonylphenyl)pyrazin-2-yl]-1,3,4-oxadiazol-2-yl]pyrrolidine-2-carboxamide]
10 to 100	CC(O)c1cccc(-c2nnc(-c3nc(-c4ccc(C(=O)N(C)C)cc4)cnc3N)o2)c1 (centres unmarked) [IA-275, 4-[5-amino-6-[5-[3-(1-hydroxyethyl)phenyl]-1,3,4-oxadiazol-2-yl]pyrazin-2-yl]-N,N-dimethyl-benzamide]
10 to 100	Nc1ncc(-c2cccc3ccsc23)nc1-c1nnc(-c2ccccc2)o1 [IA-259, 5-(benzothiophen-7-yl)-3-(5-phenyl-1,3,4-oxadiazol-2-yl)pyrazin-2-amine]
≤ 10	CC(C)S(=O)(=O)c1ccc(-c2cnc(N)c(-c3nnc(-c4ccc(CN)s4)o3)n2)cc1 [IA-173, 3-[5-[5-(aminomethyl)-2-thienyl]-1,3,4-oxadiazol-2-yl]-5-(4-isopropylsulfonylphenyl)pyrazin-2-amine]
≤ 10	CNCc1ccc(-c2nnc(-c3nc(-c4ccc(S(=O)(=O)NCCO)cc4)cnc3N)o2)cc1 [IA-304, 4-[5-amino-6-[5-[4-(methylaminomethyl)phenyl]-1,3,4-oxadiazol-2-yl]pyrazin-2-yl]-N-(2-hydroxyethyl)benzenesulfonamide]
10 to 100	CC(C)S(=O)(=O)c1ccc(-c2cnc(N)c(-c3nnc(NCCCN)o3)n2)cc1 [IA-97, N-[5-[3-amino-6-(4-isopropylsulfonylphenyl)pyrazin-2-yl]-1,3,4-oxadiazol-2-yl]propane-1,3-diamine]
≤ 10	CNCc1ccc(-c2nnc(-c3nc(-c4ccc(S(=O)(=O)C(C)C)c(Cl)c4)cnc3N)o2)cc1 [IA-305, 5-(3-chloro-4-isopropylsulfonyl-phenyl)-3-[5-[4-(methylaminomethyl)phenyl]-1,3,4-oxadiazol-2-yl]pyrazin-2-amine]
100 to 5000	CN(C)CCNc1cc(-c2cnc(N)c(-c3nnc(-c4ccccc4)o3)n2)ccn1 [IA-265, N′-[4-[5-amino-6-(5-phenyl-1,3,4-oxadiazol-2-yl)pyrazin-2-yl]-2-pyridyl]-N,N-dimethyl-ethane-1,2-diamine]
≤ 10	Cc1ccsc1-c1nnc(-c2nc(-c3ccc(C(=O)N(C)C)cc3)cnc2N)o1 [IA-167, 4-[5-amino-6-[5-(3-methyl-2-thienyl)-1,3,4-oxadiazol-2-yl]pyrazin-2-yl]-N,N-dimethyl-benzamide]
10 to 100	NC(=O)c1cccc(-c2cnc(N)c(-c3nnc(-c4ccccc4)o3)n2)c1 [IA-100, 3-[5-amino-6-(5-phenyl-1,3,4-oxadiazol-2-yl)pyrazin-2-yl]benzamide]
100 to 5000	CN(C)C(=O)c1ccc(-c2cnc(N)c(-c3nnc(-c4cccc([N+](=O)[O-])c4)o3)n2)cc1 [IA-286, 4-(5-amino-6-(5-(3-nitrophenyl)-1,3,4-oxadiazol-2-yl)pyrazin-2-yl)-N,N-dimethylbenzamide]
100 to 5000	CC(C)S(=O)(=O)c1ccc(-c2cnc(N)c(-c3nnc(N4CCNCC4)o3)n2)cc1 [IA-239, 5-(4-isopropylsulfonylphenyl)-3-(5-piperazin-1-yl-1,3,4-oxadiazol-2-yl)pyrazin-2-amine]
≤ 10	CN(C)C(=O)c1ccc(-c2cnc(N)c(-c3nnc(-c4cccn4C)o3)n2)cc1 [IA-135, 4-[5-amino-6-[5-(1-methylpyrrol-2-yl)-1,3,4-oxadiazol-2-yl]pyrazin-2-yl]-N,N-dimethyl-benzamide]
≤ 10	CNCc1ccc(-c2nnc(-c3nc(-c4ccc(S(=O)(=O)C(C)CN(C)C)cc4)cnc3N)o2)cc1 (centres unmarked) [IA-324, 5-[4-[2-(dimethylamino)-1-methyl-ethyl]sulfonylphenyl]-3-[5-[4-(methylaminomethyl)phenyl]-1,3,4-oxadiazol-2-yl]pyrazin-2-amine]
≤ 10	CC(C)S(=O)(=O)c1ccc(-c2cnc(N)c(-c3nnc(-c4ccc5c(c4)CCNC5)o3)n2)cc1 [IA-145, 5-(4-isopropylsulfonylphenyl)-3-[5-(1,2,3,4-tetrahydroisoquinolin-6-yl)-1,3,4-oxadiazol-2-yl]pyrazin-2-amine]
10 to 100	CN(C)C(=O)c1ccc(-c2cnc(N)c(-c3nnc(-c4cccc(N)n4)o3)n2)cc1 [IA-231, 4-[5-amino-6-[5-(6-amino-2-pyridyl)-1,3,4-oxadiazol-2-yl]pyrazin-2-yl]-N,N-dimethyl-benzamide]
≤ 10	CC(C)S(=O)(=O)c1ccc(-c2cnc(N)c(-c3nnc(-c4ccc(C5CNC5)cc4)o3)n2)cc1 [IA-285, 3-[5-[4-(azetidin-3-yl)phenyl]-1,3,4-oxadiazol-2-yl]-5-(4-isopropylsulfonylphenyl)pyrazin-2-amine]
≤ 10	CC(C)S(=O)(=O)c1ccc(-c2cnc(N)c(-c3nnc(-c4ccc(CNCCF)cc4)o3)n2)cc1 [IA-346, 3-[5-[4-[(2-fluoroethylamino)methyl]phenyl]-1,3,4-oxadiazol-2-yl]-5-(4-isopropylsulfonylphenyl)pyrazin-2-amine]
≤ 10	CNCc1ccc(-c2nnc(-c3nc(-c4ccc(S(=O)(=O)C(C)CCOC)cc4)cnc3N)o2)cc1 (centres unmarked) [IA-330, 5-[4-(3-methoxy-1-methyl-propyl)sulfonylphenyl]-3-[5-[4-(methylaminomethyl)phenyl]-1,3,4-oxadiazol-2-yl]pyrazin-2-amine]
10 to 100	CN(C)C(=O)c1ccc(-c2cnc(N)c(-c3nnc(-c4ccccc4-c4ccsc4)o3)n2)cc1 [IA-127, 4-[5-amino-6-[5-[2-(3-thienyl)phenyl]-1,3,4-oxadiazol-2-yl]pyrazin-2-yl]-N,N-dimethyl-benzamide]
≤ 10	CNCc1ccc(-c2nnc(-c3nc(-c4ccc(S(=O)(=O)C(C)C)nc4)cnc3N)o2)cc1 [IA-303, 5-(6-isopropylsulfonyl-3-pyridyl)-3-[5-[4-(methylaminomethyl)phenyl]-1,3,4-oxadiazol-2-yl]pyrazin-2-amine]
≤ 10	CN(C)C(=O)c1ccc(-c2cnc(N)c(-c3nnc(-c4ccccc4OCCCO)o3)n2)cc1 [IA-284, 4-[5-amino-6-[5-[2-(3-hydroxypropoxy)phenyl]-1,3,4-oxadiazol-2-yl]pyrazin-2-yl]-N,N-dimethyl-benzamide]
≤ 10	CC(C)S(=O)(=O)c1ccc(-c2cnc(N)c(-c3nnc(-c4ccc(CN(C)C)cc4)o3)n2)cc1 [IA-243, 3-[5-[4-(dimethylaminomethyl)phenyl]-1,3,4-oxadiazol-2-yl]-5-(4-isopropylsulfonylphenyl)pyrazin-2-amine]
